Biological target: T1, Des1 (Homo sapiens, UniProt O15121)
T1 sequence (O15121 1-323): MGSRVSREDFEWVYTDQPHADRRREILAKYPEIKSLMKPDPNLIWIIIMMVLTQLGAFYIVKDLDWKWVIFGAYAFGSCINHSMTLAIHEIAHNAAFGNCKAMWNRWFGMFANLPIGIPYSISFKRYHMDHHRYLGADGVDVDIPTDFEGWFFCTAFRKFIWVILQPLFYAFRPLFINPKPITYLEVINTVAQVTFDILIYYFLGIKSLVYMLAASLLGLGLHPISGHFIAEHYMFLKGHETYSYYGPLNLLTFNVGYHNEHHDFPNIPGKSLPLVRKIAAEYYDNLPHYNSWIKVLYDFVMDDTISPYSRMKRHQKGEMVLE
Experiment: Jurkat T cell measurement of conversion of dihydroceramide to ceramide (Des1 activity, LC-MS/MS of NBD-C6-ceramide)
Type: cell-based
Set-up: endogenous in cells; host or cells: Jurkat clone E6-1
Details: Jurkat clone E6-1 cells, 10 μM NBD-C6-dihydroceramide, 3 hours at 37° C.; for inhibition at 0.5 µM: 0.5 uM compound, read-out: Des1 % Inhib (0.5 uM); for IC50: read-out: Des1 IC50
Description: Jurkat T Cell Measurement of Conversion of Dihydroceramide to Ceramide
Jurkat clone E6-1 cells were grown and then seeded at 10^6 cells/mL in a 96-well plate (400 μL in each well. The cells were administered 100 μL of cell culture media containing 50-μM NBD-C6-dihydroceramide (Des1 substrate), affording a final concentration of substrate of 10 μM. The cells were incubated with substrate at 4° C. for 30 minutes. Following the incubation at 4° C., the cell suspension was centrifuged at 1200 rpm for 3 minutes, and the cell pellet is resuspended in 400 μL of fresh media containing various concentrations of either fenretinide (known Des1 inhibitor control compound) or test article. The final concentrations of control compound and test compounds were tested in a range from 0-10 μM. The cells and compounds were incubated at 37° C. for 3 hours. Following the 3-hour incubation, the plate was centrifuged at 2500 g for 3 minutes at 4° C., followed by collection and transfer of 200 μL of the supernatant to a new 96-well plate with 300 μL of methanol an containing appropriate internal standards for liquid chromatography/tandem mass spectroscopy (LC/MS/MS) analysis (internal standard: 500 nM labetalol and 100 nM alprazolam). The samples were vortexed for 2 minutes followed by centrifugation at 3,220 g for 20 minutes. Following centrifugation, 200 μL of the supernatant was transferred to a new 96-well plate for LC-MS/MS analysis to determine the amount of NBD-C6-ceramide (Des1 product) produced. The assay was typically performed in duplicate. A reduction of at least 30% compared to vehicle control (0 μM test article) is indicative of an active compound, and a reduction of 75% compared to vehicle control is preferred.

Row | SMILES | inhibition at 0.5 µM [%] | IC50 [nM]
1 | O=C(Nc1ccc(O)cn1)N1CCN(c2cccnc2)CC1 [Example 39, 1-[((5-Hydroxypyridin-2-yl)amino)carbonyl]-4-(pyridin-3-yl)piperazine] | 9.11 | 
2 | CCCCCCNC(=O)Nc1ccc(O)cn1 [Example 40, 1-Hexyl-3-(5-hydroxypyridin-2-yl)urea] | 89.1 | 13
3 | CCCCCCOC(=O)Nc1ccc(O)cn1 [Example 41, Hexyl N-(5-hydroxypyridin-2-yl)carbamate] | 95.1 | 13
4 | O=C(Nc1ccc(O)cn1)N1CCN(c2ccc(OC(F)(F)F)cn2)CC1 [Example 46, N-(5-hydroxypyridin-2-yl)-4-[5-(trifluoromethoxy)pyridin-2-yl]piperazine-1-carboxamide] | 94.5 | 7
5 | O=C(Nc1ccc(O)cn1)NC1CCCN(c2ccc(Cl)cc2)C1 (stereo not shown) [Example 48, 1-[1-(4-chlorophenyl)piperidin-3-yl]-3-(5-hydroxypyridin-2-yl)urea] | 39.8 | 
6 | O=C(Nc1ccc(O)cn1)NC1CCN(c2ccc(F)cn2)CC1 [Example 49, 1-[1-(5-fluoropyridin-2-yl)piperidin-4-yl]-3-(5-hydroxypyridin-2-yl)urea] |  | 130
7 | O=C(Nc1ccc(O)cn1)NC1CCN(c2ccc(Cl)cc2)CC1 [Example 52, 1-[1-(4-chlorophenyl)piperidin-4-yl]-3-(5-hydroxypyridin-2-yl)urea] |  | 29
8 | O=C(Nc1ccc(O)cn1)OC1CCN(c2ccc(F)cc2)CC1 [Example 53, 1-(4-fluorophenyl)piperidin-4-yl N-(5-hydroxypyridin-2-yl)carbamate] | 94.8 | 4
9 | O=C(Nc1ccc(O)cn1)OC1CCN(c2ccc(Cl)cc2)CC1 [Example 55, 1-(4-chlorophenyl)piperidin-4-yl N-(5-hydroxypyridin-2-yl)carbamate] | 96.5 | 2
10 | O=C(Nc1ccc(O)cn1)OC1CCN(c2ccc(C(F)(F)F)cc2)CC1 [Example 57, 1-[4-(trifluoromethyl)phenyl] piperidin-4-yl N-(5-hydroxypyridin-2-yl) carbamate] | 95.5 | 1
11 | O=C(Nc1ccc(O)cn1)OC1CCN(c2ccc(Cl)cc2Cl)CC1 [Example 58, 1-(2,4-dichlorophenyl)piperidin-4-yl N-(5-hydroxypyridin-2-yl)carbamate] | 96.8 | 4
12 | O=C(Nc1ccc(O)cn1)OC1CCN(c2ccccn2)CC1 [Example 59, 1-(pyridin-2-yl)piperidin-4-yl N-(5-hydroxypyridin-2-yl)carbamate] | 93.2 | 43
13 | CC(C)c1ccc(S(=O)(=O)Nc2ccc(O)cn2)cc1 [Example 61, N-(5-Hydroxypyridin-2-yl)-4-(propan-2-yl)benzene-1-sulfonamide] | 37.5 | 
14 | O=S(=O)(Nc1ccc(O)cn1)C1CCN(c2ccc(F)cc2)CC1 [Example 66, 1-(4-fluorophenyl)-N-(5-hydroxypyridin-2-yl)piperidine-4-sulfonamide] | 72.1 | 
15 | O=S(=O)(Nc1ccc(O)cn1)C1CCN(c2ccc(Cl)cn2)CC1 [Example 67, 1-(5-chloropyridin-2-yl)-N-(5-hydroxypyridin-2-yl)piperidine-4-sulfonamide] | 85.3 | 
16 | O=S(=O)(Nc1ccc(O)cn1)C1CCN(c2ccc(Cl)cc2)CC1 [Example 68, 1-(4-chlorophenyl)-N-(5-hydroxypyridin-2-yl)piperidine-4-sulfonamide] | 92.4 | 85

Continued, values first:

Row | inhibition at 0.5 µM [%] | IC50 [nM] | SMILES
17 | 81.4 | 35 | O=C(Nc1ccc(O)cn1)OC1CCCCC1 [Example 42, Cyclohexyl N-(5-hydroxypyridin-2-yl)carbamate]
18 | 97 | 6 | O=C(Nc1ccc(O)cn1)O[C@H]1CC[C@H](c2ccccc2)CC1 [Example 43, (1r,4r)-4-Phenylcyclohexyl N-(5-hydroxypyridin-2-yl)carbamate]
19 | 95 | 8 | O=C(Nc1ccc(O)cn1)OC1CCN(c2ccccc2)CC1 [Example 44, 1-Phenylpiperidin-4-yl N-(5-hydroxypyridin-2-yl)carbamate]
20 |  | 470 | COc1ccc(N2CCN(C(=O)Nc3ccc(O)cn3)CC2)nc1 [Example 45, N-(5-hydroxypyridin-2-yl)-4-(5-methoxypyridin-2-yl)piperazine-1-carboxamide]
21 | 51.8 |  | O=C(Nc1ccc(O)cn1)NC1CCCN(c2ccc(F)cc2)C1 (stereo not shown) [Example 47, 1-[1-(4-fluorophenyl)piperidin-3-yl]-3-(5-hydroxypyridin-2-yl)urea]
22 | 83 |  | O=C(Nc1ccc(O)cn1)N1CCN(c2ccc(F)nc2)CC1 [Example 50, 4-(6-fluoropyridin-3-yl)-N-(5-hydroxypyridin-2-yl) piperazine-1-carboxamide]
23 | 91.5 | 92 | O=C(Nc1ccc(O)cn1)NC1CCN(c2ccc(F)cc2)CC1 [Example 51, 1-[1-(4-fluorophenyl)piperidin-4-yl]-3-(5-hydroxypyridin-2-yl)urea]
24 |  | 5 | O=C(Nc1ccc(O)cn1)OC1CCN(c2ccc(F)cc2F)CC1 [Example 54, 1-(2,4-difluorophenyl)piperidin-4-yl N-(5-hydroxypyridin-2-yl)carbamate]
25 | 94.7 | 28 | O=C(Nc1ccc(O)cn1)OC1CCN(c2ccc(F)cn2)CC1 [Example 56, 1-(5-fluoropyridin-2-yl)piperidin-4-yl N-(5-hydroxypyridin-2-yl)carbamate]
26 | 96 | 3 | O=C(Nc1ccc(O)cn1)OC1CCN(c2ccc(C(F)(F)F)cn2)CC1 [Example 60, 1-[5-(trifluoromethyl)pyridin-2-yl]piperidin-4-yl N-(5-hydroxypyridin-2-yl)carbamate]
27 | 69.4 | 310 | CC(C)(C)c1ccc(S(=O)(=O)Nc2ccc(O)cn2)cc1 [Example 62, 4-tert-Butyl-N-(5-hydroxypyridin-2-yl)benzene-1-sulfonamide]
28 |  | > 1000 | O=C(OCc1ccccc1)N1CCC(S(=O)(=O)Nc2ccc(O)cn2)CC1 [Example 63, Benzyl 4-[(5-hydroxypyridin-2-yl)sulfamoyl]piperidine-1-carboxylate]
29 | 19.2 |  | O=S(=O)(Nc1ccc(O)cn1)C1CCN(c2ccccc2)CC1 [Example 64, N-(5-hydroxypyridin-2-yl)-1-phenylpiperidine-4-sulfonamide]
30 |  | > 1000 | O=S(=O)(Nc1ccc(O)cn1)C1CCN(Cc2ccccc2)CC1 [Example 65, 1-benzyl-N-(5-hydroxypyridin-2-yl)piperidine-4-sulfonamide]
31 | 95 | 40 | O=S(=O)(Nc1ccc(O)cn1)C1CCN(c2ccc(C(F)(F)F)cc2)CC1 [Example 69, N-(5-hydroxypyridin-2-yl)-1-[4-(trifluoromethyl)phenyl]piperidine-4-sulfonamide]
32 | 83.8 | 110 | CC(C)CCCCCS(=O)(=O)Nc1ccc(O)cn1 [Example 70, N-(5-Hydroxypyridin-2-yl)-6-methylheptane-1-sulfonamide]
33 | 88 | 31 | O=S(=O)(Nc1ccc(O)cn1)N1CCC(c2ccc(Cl)cc2)CC1 [Example 71, 4-(4-chlorophenyl)-N-(5-hydroxypyridin-2-yl)piperidine-1-sulfonamide]
